Source: patent US8586591B2, “Aminopyrazine derivative and medicine” (Nippon Shinyaku Co., Ltd., priority 2009, dated 2013)
Structures can show the parent of a compound that is named as a salt.

Assays:
JAK3 tyrosine kinase = target: T1, JAK3 tyrosine kinase (Homo sapiens, UniProt P52333); assay: Test 1: inhibitory activity to JAK3 tyrosine kinase (ELISA); type: biochemical; settings: 25 μM ATP in substrate solution, 30° C. for 1 hour, n=2
T1 construct: purchased Carnabioscience Co
T1 sequence (P52333 1-1124): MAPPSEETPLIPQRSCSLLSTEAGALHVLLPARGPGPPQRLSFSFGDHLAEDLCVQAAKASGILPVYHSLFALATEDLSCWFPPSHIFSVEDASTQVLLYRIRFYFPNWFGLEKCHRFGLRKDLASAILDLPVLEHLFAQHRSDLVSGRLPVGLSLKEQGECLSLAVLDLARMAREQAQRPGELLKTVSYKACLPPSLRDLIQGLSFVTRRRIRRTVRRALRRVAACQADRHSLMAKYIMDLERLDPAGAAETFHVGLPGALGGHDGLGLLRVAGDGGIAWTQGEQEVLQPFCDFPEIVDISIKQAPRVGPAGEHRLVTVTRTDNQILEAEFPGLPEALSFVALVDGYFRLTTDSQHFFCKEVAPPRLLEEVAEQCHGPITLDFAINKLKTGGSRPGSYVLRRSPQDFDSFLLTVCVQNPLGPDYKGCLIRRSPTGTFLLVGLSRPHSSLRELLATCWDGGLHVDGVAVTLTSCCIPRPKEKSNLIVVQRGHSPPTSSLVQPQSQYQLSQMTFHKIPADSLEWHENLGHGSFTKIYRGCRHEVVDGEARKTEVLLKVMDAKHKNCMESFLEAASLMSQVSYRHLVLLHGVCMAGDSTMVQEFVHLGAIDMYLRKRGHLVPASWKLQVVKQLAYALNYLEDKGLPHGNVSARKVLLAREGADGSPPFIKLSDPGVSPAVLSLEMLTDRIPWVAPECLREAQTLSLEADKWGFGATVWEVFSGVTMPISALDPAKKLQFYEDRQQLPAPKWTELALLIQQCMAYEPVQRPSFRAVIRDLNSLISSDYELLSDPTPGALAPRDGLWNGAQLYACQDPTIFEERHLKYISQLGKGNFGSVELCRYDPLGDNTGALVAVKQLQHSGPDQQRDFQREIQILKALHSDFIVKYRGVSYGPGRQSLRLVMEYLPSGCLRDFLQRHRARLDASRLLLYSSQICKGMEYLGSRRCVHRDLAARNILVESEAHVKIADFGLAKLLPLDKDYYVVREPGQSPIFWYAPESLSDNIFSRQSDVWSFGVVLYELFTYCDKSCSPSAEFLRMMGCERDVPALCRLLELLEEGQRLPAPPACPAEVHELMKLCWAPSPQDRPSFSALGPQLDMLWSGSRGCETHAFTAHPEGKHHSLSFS
In short: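 ELISA of JAK3 kinase activity with absorbance read at 450 nm. Compounds were tested from DMSO dilution series at 100-fold the measurement concentrations (1000–0.01 μM), diluted up to 20 times in assay buffer, against a DMSO negative control. IC50 was estimated by non-linear regression of absorbance.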

JAK2 tyrosine kinase = target: T2, JAK2 tyrosine kinase (Homo sapiens, UniProt O60674); assay: Test 1: inhibitory activity to JAK2 tyrosine kinase (ELISA); type: biochemical; settings: 25 μM ATP in substrate solution, 30° C. for 1 hour, n=2
T2 construct: purchased Carnabioscience Co
T2 sequence (O60674 whole entry): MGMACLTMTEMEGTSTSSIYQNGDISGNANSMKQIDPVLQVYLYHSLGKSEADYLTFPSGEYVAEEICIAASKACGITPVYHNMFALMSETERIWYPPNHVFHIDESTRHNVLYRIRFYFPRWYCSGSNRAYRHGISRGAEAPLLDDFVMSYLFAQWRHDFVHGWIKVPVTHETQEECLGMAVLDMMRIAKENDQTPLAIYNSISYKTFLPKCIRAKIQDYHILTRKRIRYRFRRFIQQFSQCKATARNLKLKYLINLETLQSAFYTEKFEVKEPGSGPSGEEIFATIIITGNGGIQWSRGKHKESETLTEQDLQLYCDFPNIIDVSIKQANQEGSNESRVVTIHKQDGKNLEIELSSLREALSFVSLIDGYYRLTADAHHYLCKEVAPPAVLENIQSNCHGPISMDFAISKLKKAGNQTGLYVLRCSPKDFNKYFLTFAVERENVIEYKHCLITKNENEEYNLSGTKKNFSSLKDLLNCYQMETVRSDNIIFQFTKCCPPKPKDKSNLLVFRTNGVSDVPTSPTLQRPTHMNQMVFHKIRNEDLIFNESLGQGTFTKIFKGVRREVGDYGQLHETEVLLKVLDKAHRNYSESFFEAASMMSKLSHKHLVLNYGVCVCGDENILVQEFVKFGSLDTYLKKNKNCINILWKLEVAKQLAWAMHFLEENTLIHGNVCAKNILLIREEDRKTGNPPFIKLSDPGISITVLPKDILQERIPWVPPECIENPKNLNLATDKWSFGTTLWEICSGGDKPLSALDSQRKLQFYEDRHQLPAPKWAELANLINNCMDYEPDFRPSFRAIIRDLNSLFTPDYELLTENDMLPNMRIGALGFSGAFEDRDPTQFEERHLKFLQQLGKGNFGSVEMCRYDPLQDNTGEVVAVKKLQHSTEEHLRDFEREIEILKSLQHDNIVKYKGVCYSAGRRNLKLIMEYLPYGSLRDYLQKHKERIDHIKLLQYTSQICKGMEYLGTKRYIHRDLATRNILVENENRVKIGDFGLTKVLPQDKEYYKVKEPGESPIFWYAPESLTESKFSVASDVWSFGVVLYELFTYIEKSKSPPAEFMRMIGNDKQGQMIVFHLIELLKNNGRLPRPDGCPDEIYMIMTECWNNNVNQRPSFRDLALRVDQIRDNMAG
In short: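 This is an ELISA read at A450 (HRP anti-phosphotyrosine antibody, TMB) of biotin-peptide phosphorylation captured on streptavidin. Enzyme solution was 0.75 nM JAK2, and the substrate solution was 625 nM peptide with 25 μM ATP in Tris pH 7.5 buffer. The reaction ran 1 h at 30 °C with compounds in duplicate, and IC50 was fitted non-linearly.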

SMILES | IC50 (JAK3 tyrosine kinase) [nM] | IC50 (JAK2 tyrosine kinase) [nM]
C[C@H](Nc1nc(Nc2cnccn2)cc(N2CCCNC2=O)n1)c1ccc(F)cc1 [Example 18, (S)-1-{2-[1-(4-Fluorophenyl)ethylamino]-6-(pyrazin-2-ylamino)pyrimidin-4-yl}tetrahydropyrimidin-2(1H)-one] | 130 | 3
C[C@H](Nc1nc(Nc2cnccn2)cc(-c2cccnc2)n1)c1ccc(F)cc1 [Example 32, (S)—N^2-[1-(4-Fluorophenyl)ethyl]-N^4-(pyrazin-2-yl)-6-(pyridin-3-yl)pyrimidine-2,4-diamine ½ maleate] | 68 | 0.5
C[C@H](Nc1cc(-c2cc[nH]n2)cc(Nc2cnccn2)n1)c1ccc(F)cc1 [Example 29, (S)—N^2-[1-(4-Fluorophenyl)ethyl]-N^6-(pyrazin-2-yl)-4-(1H-pyrazol-3-yl)pyridine-2,6-diamine] | 160 | 2
C[C@H](Nc1nc(NCC2CCCO2)cc(Nc2cnccn2)n1)c1ccc(F)cc1 (stereo partly drawn) [Example 68, N^2-[(S)-1-(4-Fluorophenyl)ethyl]-N^4-(pyrazin-2-yl)-N^6-[(tetra hydrofuran-2-yl)methyl]pyrimidine-2,4,6-triamine] | 34 | 1.5
CC(C)C[C@H](CO)Nc1cc(Nc2cnccn2)nc(N[C@@H](C)c2ccc(F)cc2)n1 [Example 88, (R)-2-{2-[(S)-1-(4-Fluorophenyl)ethylamino]-6-(pyrazin-2-ylamino)pyrimidin-4-ylamino}-4-methylpentan-1-ol] | 200 | 13
C[C@H](Nc1nc(Nc2cnccn2)cc(N2CCC(N)C2)n1)c1ccc(F)cc1 (stereo partly drawn) [Example 59, 6-(3-Aminopyrrolidin-1-yl)-N^2-[(S)-1-(4-fluorophenyl)ethyl]-N^4-(pyrazin-2-yl)pyrimidine-2,4-diamine] | 60 | 1.7
C[C@H](Nc1cc(N2CCOCC2)cc(Nc2cnccn2)n1)c1ccc(F)cc1 [Example 39, (S)—N^2-[1-(4-Fluorophenyl)ethyl]-4-morpholine-N^6-(pyrazin-2-yl)pyridine-2,6-diamine] | 90 | 0.93
COc1ccc(-c2cc(Nc3cnccn3)nc(N[C@@H](C)c3ccc(F)cc3)n2)cn1 [Example 23, (S)—N^2-[1-(4-Fluorophenyl)ethyl]-6-(6-methoxypyridin-3-yl)-N^4-(pyrazin-2-yl)pyrimidine-2,4-diamine hydrochloride] | 210 | 4.2
C[C@H](Nc1nc(Nc2cnccn2)cc(N2CCCC(C(N)=O)C2)n1)c1ccc(F)cc1 (stereo partly drawn) [Example 63, 1-{2-[(S)-1-(4-Fluorophenyl)ethylamino]-6-(pyrazin-2-ylamino)pyrimidin-4-yl}piperidin-3-carboxamide hydrochloride] | 36 | 1
C[C@H](Nc1nc(NCCN2CCCC2)cc(Nc2cnccn2)n1)c1ccc(F)cc1 [Example 96, (S)—N^2-[1-(4-Fluorophenyl)ethyl]-N^4-(pyrazin-2-yl)-N^6-[2-(pyrrolidin-1-yl)ethyl]pyrimidine-2,4,6-triamine] | 33 | 1.4

More lines, now with the values ahead:

IC50 (JAK3 tyrosine kinase) [nM] | IC50 (JAK2 tyrosine kinase) [nM] | SMILES
160 | 15 | COC1(C(C)C)CN(c2cc(Nc3cnccn3)nc(N[C@@H](C)c3ccc(F)cc3)c2)C1 [Example 212, (S)—N^2-[1-(4-Fluorophenyl)ethyl]-4-(3-isopropyl-3-methoxyazetidin-1-yl)-N^6-(pyrazin-2-yl)pyridine-2,6-diamine hydrochloride]
600 | 11 | C[C@H](Nc1nc(Nc2cnccn2)cc(O[C@H]2CCCC[C@@H]2O)n1)c1ccc(F)cc1 [Example 101, (1S,2S)-2-{2-[(S)-1-(4-Fluorophenyl)ethylamino]-6-(pyrazin-2-ylamino)pyrimidin-4-yloxy}cyclohexanol hydrochloride]
300 | 7 | C[C@H](Nc1cc(N2CC(F)(F)C2)cc(Nc2cnccn2)n1)c1ccc(F)cc1 [Example 207, (S)-4-(3,3-Difluoroazetidin-1-yl)-N^2-[1-(4-fluorophenyl)ethyl]-N^6-(pyrazin-2-yl)pyridine-2,6-diamine hydrochloride]
59 | 1.8 | COC1CN(c2cc(Nc3cnccn3)nc(N[C@@H](C)c3ccc(F)cc3)n2)C1 [Example 183, (S)—N^2-[1-(4-Fluorophenyl)ethyl]-6-(3-methoxyazetidin-1-yl)-N^4-(pyrazin-2-yl)pyrimidine-2,4-diamine hydrochloride]
39 | 1 | CC(Nc1cc(Nc2cnccn2)nc(N[C@@H](C)c2ccc(F)cc2)n1)c1cccnc1 (stereo partly drawn) [Example 104, (S)—N^2-[1-(4-Fluorophenyl)ethyl]-N^4-(pyrazin-2-yl)-N^6-[1-(pyridin-3-yl)ethyl]pyrimidine-2,4,6-triamine]
180 | 3.9 | C[C@H](Nc1nc(Nc2cnccn2)cc(N2CC(CNC(=O)OC(C)(C)C)C2)n1)c1ccc(F)cc1 [Example 229, t-Butyl (S)-(1-{2-[1-(4-fluorophenyl)ethylamino]-6-(pyrazin-2-ylamino)pyrimidin-4-yl}azetidin-3-yl)methyl carbamate]
58 | 1.2 | CCS(=O)(=O)NC1CN(c2cc(Nc3cnccn3)nc(N[C@@H](C)c3ccc(F)cc3)n2)C1 [Example 190, (S)—N-(1-{2-[1-(4-Fluorophenyl)ethylamino]-6-(pyrazin-2-ylamino)pyrimidin-4-yl}azetidin-3-yl)ethanesulfonamide]
110 | 1.6 | C[C@H](Nc1nc(Nc2cnccn2)cc(N2CCC3(CC2)OCCO3)n1)c1ccc(F)cc1 [Example 111, N^2-[(S)-1-(4-Fluorophenyl)ethyl]-N^4-(pyrazin-2-yl)-6-(1,4-dioxa-8-azaspiro[4.5]decan-8-yl)pyrimidine-2,4-diamine]
20 | 1.1 | C[C@H](Nc1nc(Nc2cnccn2)cc(N2CC(NC(N)=O)C2)n1)c1ccc(F)cc1 [Example 227, (S)-1-(1-{2-[1-(4-Fluorophenyl)ethylamino]-6-(pyrazin-2-ylamino)pyrimidin-4-yl}azetidin-3-yl)urea]
120 | 1.9 | C[C@H](Nc1nc(Nc2cnccn2)cc(N2CC(O)(C(F)(F)F)C2)n1)c1ccc(F)cc1 [Example 192, (S)-1-{2-[1-(4-Fluorophenyl)ethylamino]-6-(pyrazin-2-ylamino)pyrimidin-4-yl}-3-(trifluoromethyl)azetidin-3-ol hydrochloride]
56 | 0.77 | C[C@H](Nc1nc(NCc2cccnc2)cc(Nc2cnccn2)n1)c1ccc(F)cc1 [Example 107, (S)—N^2-[1-(4-Fluorophenyl)ethyl]-N^4-(pyrazin-2-yl)-N^6-(pyridin-3-ylmethyl)pyrimidine-2,4,6-triamine]
210 | 2.3 | C[C@H](Nc1cc(C2CCN(S(C)(=O)=O)CC2)cc(Nc2cnccn2)n1)c1ccc(F)cc1 [Example 215, (S)—N^2-[1-(4-Fluorophenyl)ethyl]-4-[1-(methanesulfonyl)piperidin-4-yl]-N^6-(pyrazin-2-yl)pyridine-2,6-diamine]
85 | 2.2 | C[C@H](Nc1cc(-c2cnn(C3CC3)c2)cc(Nc2cnccn2)n1)c1ccc(F)cc1 [Example 218, (S)-4-(1-Cyclopropyl-1H-pyrazol-4-yl)-N^2-[1-(4-fluorophenyl)ethyl]-N^6-(pyrazin-2-yl)pyridine-2,6-diamine]
